Series [1] concerns ovariectomized rats. As to conditions: oral; cited from earlier work.
The subject of series [2] is Aortic Rings of JCR:LA-cp rats. In words: Relaxant response of aortic rings to acetylcholine. The series is classed as in vivo, rat. The following applies: treated cp/cp rats; for Maximum Relaxation: acetylcholine, rings pre-contracted with phenylephrine; for Slope: logistic curve fit, acetylcholine relaxation. The text has this:
(§1) The JCR:LA-cp rat is known to spontaneously develop the range of dysfunction and pathophysiology associated with Metabolic Syndrome in humans, e.g., obesity, profound insulin resistance, atherosclerosis with enhanced vascular contractility, and reduced vascular relaxation. In addition, obese male rats spontaneously develop ischemic lesions of the heart and are prone to stress-induced myocardial infarcts that can be fatal. Insulin resistance develops rapidly in young rats between the ages of 4 and 7 weeks and is highly correlated with the cardiovascular disease. […] Consistent with this observation is the presence of glomerular sclerosis in the older rats.
(§2) Male JCR: LA-cp rats are maintained on a reversed light cycle at 3 or 7 weeks of age and acclimatized over a 1-week period. This allows metabolic studies to be conducted under subdued light, during the active (dark) phase of their diurnal cycle.
(§3) The rats are divided into four groups and receive one of the three aforementioned feed concentrations or unsupplemented feed. The dosage is maintained on either a mg/kg body weight basis, in which case the diet is formulated on a weekly basis to ensure each rat receives the intended dose on a mg/kg basis, or the specified concentration in the feed. Food consumption and body weights are measured twice weekly.
(§4) At 13 weeks of age, rats in the fed state are sacrificed under anesthesia with halothane in oxygen, and the following tissues are removed for processing as described below:
(§5) 1. Thoracic aorta for vascular function studies;
(§6) The following parameters are measured: Food intake and body weights, ulin response (through a meal tolerance test), plasma total lipid profile, ratio n to creatinine, plasma levels of leptin, C-reactive protein and tumor necrosis TNFα), vascular function studies on aortic rings (contractility/relaxation), levels and activity of peroxisome proliferator-activated receptors (PPARs), osition of plasma cholesterol esters, liver, pancreas, muscle and adipose phatidylinositol-3 (PI-3) Kinase Signaling. Histological analysis are obtained sclerosis; islet morphometry; liver-hepatic damage and lipid content; and al electron microscopy for lipid).

For series [3], the system named is JCR:LA-cp rat.
From the text: as §1, §2, §3
At 12 weeks of age, rats fast over the light (non-active) phase. A fasting blood sample is obtained from the tail and a standardized meal tolerance test (MTT) is performed. Following a 2-day recovery period, the rats are placed in a metabolism cage for 24 hours for the collection of urine.
as §4, §6

For series [4], the system named is Hearts of Male JCR: LA-cp Rats. Nature of the series: Parameters for Langendorf-perfused hearts: coronary flow, reactive hyperemia, bradykinin response. It is filed as in vivo, rat. As to conditions: hearts of treated cp/cp rats; mean +/− SEM, 10 rats.
From the text: Samples were taken from Langendorf-perfused hearts of JCR:LA-cp rats, control and arginine-treated.
as §1, §2, §3, §6

The conditions of series [5]: human volunteer, 8 g/l solution, three one-cup servings daily for three days, third-day 24-hour urine.
Series [6] deals with Aortic Rings of Male JCR: LA-cp Rats. In words: Contractile response of aortic rings to phenylephrine. As to conditions: for Slope: logistic curve fit, phenylephrine contraction, treated cp/cp rats; for Maximum contraction: phenylephrine, aortic rings from treated cp/cp rats, mean +/− SEM. The series is classed as in vivo, rat.
From the text: as §1, §2, §3, §4, §5, §6

For series [7], the system named is overweight subject. The following applies: 500 mg total per day, after several weeks.
In series [8] the test system is subject at risk for bone loss. The following applies: 500 mg total per day.
For series [9], the system named is normal rodents. As to conditions: 1% added to normal diet (1.8% L-Arg content); cited from earlier work.
Series [10] has as its system postmenopausal women. The following applies: injection, 50 mg twice weekly, 14 months; cited from earlier work.
The subject of series [11] is rabbits. The following applies: injection or ingestion; cited from earlier work.
[12] abbreviates: treatment begun at 4 weeks of age, at 12 weeks, vs control group.

Where two headings read alike, the source gives them in different places. Marks after values point to notes of the source that are not given here.

As for orthosilicic acid, in [1], the bone formation rate entry was “increased” and the bone turnover entry is given as “slowed”.
Take `N=C(N)NCCC[C@H](N)C(=O)O.O[Si](O)(O)O` [arginine silicate]: in [2], the “Maximum Relaxation” value is 97.1 +/− 4.0% and the Slope is given as −0.729 +/− 0.105. Moreover, in series [3] (coronary blood flow, FIG. 1), the “bradykinin response (FIG. 1)” value is recorded as “improved”. Moreover, the “metabolic syndrome and cardiovascular disease (CVD) symptoms” value in series [3] (dietary supplementation, compared to controls) is on record as “reduced”. Further, in [3] (setting [12]), the “increases in serum insulin concentration” value is recorded as “reduced” and the “increases in urinary albumin excretion” value was “reduced”. Further, in [3] (vs control animals), the body weight result was “reduction”; the “coronary risk lipids and lipoprotein concentrations” value is recorded as “reduction”; the endothelial function result is on record as “improved”; the “gene expression and PPAR (α, γ) activity” value is “enhanced”. For the same compound, in [3] (vs control animals), the glomerular sclerosis result was “decreased”, the inflammatory markers result is on record as “decreased levels”, the insulin resistance result is reported as “reduction” and the insulin signaling pathway entry is given as “enhanced”. Besides, in [3] (vs control animals), the ischemic lesions entry is given as “reduced”, the islet cell hyperplasia entry is on record as “lower levels”, the sensitivity to insulin entry was “greater” and the “stress induced myocardial infarct” value was “reduced”. For the same compound, in [3] (vs control animals), the “structural remodeling (e.g., enlargement of the heart)” value is given as “reduced”; the tolerance to glucose result is “greater”; the vascular contractility result was “decreased”; the vascular relaxation result was “increased”. Further, in series [4], the “Bradykinin response Maximum response relative flow” value is given as 1.95 +/− 0.40, the Coronary flow was 10.8 ± 0.4 mL/min and the Reactive hyperemia is listed as 186 +/− 25.3* %. Also, the “urinary silicon output vs baseline” value in [5] is given as “increased more than tenfold”. Also, the “level of silica (% SiO2)” value (aqueous solution 0.5 g/l) was 17.5%. Moreover, the “level of silica (% SiO2)” value (aqueous solution 10 g/l, 1 hour) stood at 11.8%. Also, the “level of silica (% SiO2)” value (aqueous solution 10 g/l, 2 hours) is given as 10.8%. The “level of silica (% SiO2)” value (aqueous solution 10 g/l, 24 hours) stood at 9.2%. For the same compound, for the setting “aqueous solution 10 g/l, time 0”, the “level of silica (% SiO2)” value stood at 17.5%. In series [6], the Slope is on record as −1.01 +/− 0.17 and the Maximum contraction was determined as 1.44 ± 0.07 g.
For the compound arginine silicate, in series [7], the “blood lipid concentrations (cholesterol and triglycerides)” value was “reduced”; the glucose metabolism entry was “normalized”. Also, in series [8] (after several months), the bone mineral density result is listed as “optimal level of bone density”. For the same compound, the “serum N-telopeptide of collagen type I and osteocalcin (markers of bone resorption and formation)” value in series [8] (after several weeks) is reported as “returned to their normal ranges”.
`Cl.N=C(N)NCCC[C@H](N)C(=O)O` [arginine HCl, reference compound]: the thymic weight entry in series [9] is recorded as “increased”. Besides, in [2], the “Maximum Relaxation” value is 90.4 +/− 3.5% and the Slope is −0.673 +/− 0.093. Moreover, in series [4], the “Bradykinin response Maximum response relative flow” value was 1.48 +/− 0.55, the Coronary flow came to 10.5 ± 0.3 mL/min and the Reactive hyperemia is recorded as 170 +/− 11** %. Further, in series [6], the Slope is recorded as −1.03 +/− 0.14 and the Maximum contraction was 1.84 ± 0.07 g.
With `C[Si](O)(O)O` [monomethyltrisilanol], in series [10], the “increase of femoral density (average)” value is listed as 4.7%. In addition, the “intimal thickening and fragmentation of arterial elastic fibers” value in [11] is “prevented”.
On to `NCCCC[C@H](N)C(=O)O.O[Si](O)(O)O` [lysine silicate], for which, in [11], the “intimal thickening and fragmentation of arterial elastic fibers” value was “prevented”.
